Laboratory results taken from PubChem BioAssay AID179 (DTP/NCI, 2004).
Activity calls are given as the source filed them.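 The calls were made as follows: active = compounds giving half or more protection of infected cells from virus-caused growth loss, again on retest; inactive = the rest.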

Tested on: CEM cells HIV-1 protection, formazan growth assay
Assay: NCI AIDS Antiviral Assay
Conditions: for IC50: measured here: growth of uninfected CEM cells
Summary of the method: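 Human CEM cells, uninfected and HIV-1-infected, exposed to five drug concentrations; growth measured by soluble formazan assay and scored as percent protection from infection, with protecting compounds retested.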

SMILES	EC50 [µM]	IC50 [µM]	outcome
C=C1[C@H]2CC[C@H]3C45CO[C@@H](CC4=O)C(C)(C)C5=C(O)C(=O)C3(C2)[C@@H]1OC(C)=O	> 18.6	> 18.6	
O=[N+]([O-])c1cc(-c2nc(=S)[nH][nH]2)ccc1O	> 1050	257	
COC1/C=C/OC2(C)Oc3c(C)c(O)c4c(O)c(c(/C=N/NC5CCCCCCCCCCCCCC5)c(O)c4c3C2=O)NC(=O)/C(C)=C\C=C\C(C)C(O)C(C)C(O)C(C)C(OC(C)=O)C1C (stereo unspecified)	> 200	10.5	
CC(C)(C)n1c(=O)[nH]c(=O)n1C(C)(C)C	> 200	> 200	
N/N=C1\C(=O)N(c2ccc(Cl)c(Cl)c2)C(=O)C1C(=O)Nc1ccc(Cl)c(Cl)c1 (stereo unspecified)	> 1.2	> 1.2	
CCOC1NC(=O)NC(=O)C1(C)Cl (stereo unspecified)	> 200	> 200	
O=C(NCC(O)CNC(=O)C(F)(F)F)C(F)(F)F			inactive
COC(=O)C1(Cc2ccc3c(c2)CCC3)Cc2ccccc2C1O (stereo unspecified)	> 200	26.9	
O=NN1C(c2ccccc2)CNC(=O)CC1c1ccccc1 (stereo unspecified)			inactive
O=C(CNc1ccccn1)Nn1cnc2ccc(S(=O)(=O)Nc3ccccn3)cc2c1=O	> 200	> 200	
COc1ccc(Nc2nc3ccc(C(F)(F)F)cc3nc2-c2ccccc2)cc1OC	> 17	> 17	
CCN(CC)C(=O)COc1cc2c(O)c3c(O)c(C)c4c(c13)C(=O)C(C)(O/C=C/C(OC)C(C)C(O)C(C)C(O)C(C)C(O)C(C)/C=C/C=C(\C)C(=O)N2)O4 (stereo unspecified)	> 200	29.5	
COC(=O)NC12CC3CC(CC(F)(C3)C1)C2	> 575	145	
Nc1ccc2c(c1)C1(NC(=O)NC1=O)c1cc(N)ccc1-2	> 200	> 200	
COC(=O)c1ccccc1C1CN=NC12Cc1c(C)cccc1C2=O (stereo unspecified)	> 200	151	
CC(=O)c1c(O)c(C)c(O)c2c1OC1=CC(=O)C(C(C)=O)C(=O)C12C (stereo unspecified)	> 200		
c1ccc2c(c1)nc1nc3c(cn12)CCCC3	> 151	> 151	
S=C(N1CCN(c2cccc(Cl)c2)CC1)N1CCN(c2cccc(Cl)c2)CC1	> 200	72.4	

SMILES	EC50 [µM]	IC50 [µM]	outcome
O=C(O)C1CCSS1 (stereo unspecified)	> 457	263	
COc1cc(-c2oc3c(OC)c(OC)c(OC)c(OC)c3c(=O)c2OC)cc(OC)c1OC	> 200	17.8	
COc1cccc(/C=N/[N-]C(N)=O)c1[O-].[Cu+2].[OH3+]	> 64.6	10.5	
N#CC(C#N)=CNC(=S)c1ccncc1	> 200	166	
O=P(c1ccccc1)(c1ccccc1)P(=O)(c1ccccc1)c1ccccc1	> 200	> 200	
CCOC(=O)C1=C(O)c2ccc(C)cc2C(=O)C1=O	> 955	324	
O=C(/C=C/c1ccc(O)c(O)c1)OCCc1cccc2ccccc12	> 200	2.75	
NS(=O)(=O)c1ccc(Nc2c3ccccc3nc3c(C(=O)NC(CO)(CO)CO)cccc23)cc1	> 200	3.39	
COc1ccc(N=Cc2cc(OC)c(OC)c(OC)c2)cc1	> 33.1	> 33.1	
O=C(CCc1nc(=S)[nH][nH]1)Nc1ccc(Cl)c(Cl)c1			inactive
COC(=O)N1c2c(ccc3c2OCO3)C23C4CN5CCCC(CCC12C(=O)OC)(CC4=O)C53 (stereo unspecified)	> 7.94	> 7.94	
Cn1cc(C(=O)C2CCCCC2)ccc1=O	> 1150	372	
O=C1CC(c2ccccc2)S(=O)c2ccccc2N1 (stereo unspecified)	> 200	> 200	
COC(=O)/C=C\C(=O)/C=C/COC(=O)c1ccccc1	> 132	20.9	
Cc1cccc(-n2c(C)nc3ccc(NC(=S)Nc4ccccc4)cc3c2=O)c1	> 200	110	
CCOc1ccccc1N=C(NC(=O)CC)SC	> 18.2	> 18.2	
c1cc(-c2ccc(-c3ccc(-c4ccc(-c5cccc6nsnc56)[nH]4)c4nsnc34)[nH]2)c2nsnc2c1	> 100	> 100	
